According to patent US20260325661A1, “ANTIBODY-CONJUGATED IMMUNO-ACTIVATING SMALL MOLECULE COMPOUND, AND USE” (SHENZHEN CONJUGENIX PHARMACEUTICAL TECHNOLOGY CO., LTD, priority 2023, published 2026):
Where two headings read alike, the source gives them in different places.

System: human peripheral blood mononuclear cells (PBMCs)
Assay: ELISA assay of immunocyte activator: induction of IFN-γ in human PBMCs
Type: cell-based
Description: The immune activity of each compound is represented by the function of inducing human peripheral blood mononuclear cells (PBMCs) to produce the immune cytokine IFN-γ by, and the EC50 values thereof are shown in Table 3.
• 1) Peripheral blood samples from healthy human volunteer were collected into heparin anticoagulant tubes to reach 5 mL of fresh blood, and PBS was added at a ratio of 1:1 to dilute the blood (2 mL+2 mL in conventional blood collection tubes). • 2) 5 mL of lymphocyte separation medium was put in a 15 mL sterile centrifuge tube for use. • 3) The diluted blood was aspirated and slowly added from 1 cm above the separation medium along the tube wall, so that the diluted blood overlaid the separation medium and formed a distinct interface therewith. • 4) The centrifuge tube was centrifuged at 2000 rpm at room temperature for 20 min. Now five layers formed in the centrifuge tube: the top layer was plasma layer, and the layer between the plasma layer and the lymphocyte separation medium was the lymphocyte layer as a white film. • 5) The mononuclear cell layer as a white film in the middle was aspirated carefully and mononuclear cells were aspirated as many as possible. The mononuclear cells were washed by more than 5 volumes of PBS twice, and each time, the mononuclear cells were centrifuged at 1500 rpm for 10 min. • 6) The supernatant was removed, then 1 mL of 1640 medium was added and mixed uniformly. A small amount of the mixture was taken for cell counting.
The prepared PBMCs were plated in a 96-well plate (Costar, 3894) (2×10^5 cells per well). Each compound in Table 3 was taken and added into the wells with plated cells at ten concentrations with uniform gradient distribution (0.0001-10 μM, diluted with […] medium containing […]).

[1] = Homo sapiens, PBMC, 24 h, 37 °C, no pretreatment marked, read-out: EC50 IFN-γ ratio (inducing human PBMCs to produce IFN-γ)
[2] = Homo sapiens, PBMC, 24 h, 37 °C, Note a: sample pretreated with human liver microsomal enzyme, 2 h, read-out: EC50 IFN-γ ratio (inducing human PBMCs to produce IFN-γ)
[3] = Homo sapiens, PBMC, 24 h, pH 6, 24 h, 37 °C, Note b: sample pretreated with equimolar glutathione, PBS pH 6, 37 °C, read-out: EC50 IFN-γ ratio (inducing human PBMCs to produce IFN-γ)
[4] = Homo sapiens, PBMC, 24 h, 37 °C, Note c: sample pretreated with Cathepsin-B (10 μg) in PBS, room temperature, 3 h, read-out: EC50 IFN-γ ratio (inducing human PBMCs to produce IFN-γ)

| Structure (SMILES) | EC50 [1] [nM] | also measured |
| --- | --- | --- |
| C=C(CN1CCC(Cn2c(=O)[nH]c3c(N)nc(OCCCC)nc32)CC1)C(=O)O [KJ-099] | 420 | – |
| COCCOc1nc(N)c2[nH]c(=O)n(Cc3ccc(CNC(=O)CCC(=O)NC(CCCCc4cn(CCOCCOCCOCCN=C=S)nn4)C(=O)NCCOCCOCCOCCNC(=O)OC4CC/C=C/CCC4)cc3)c2n1 (stereo not drawn) [Compound K48] | 89 | – |
| COCCOc1nc(N)c2[nH]c(=O)n(Cc3ccc(CNC(=O)CCC(=O)NC(CCCCc4cn(CCOCCOCCOCCNC(=O)CCN5C(=O)C=CC5=O)nn4)C(=O)NCCOCCOCCOCCOCCNC(=O)CCC(=O)N4Cc5ccccc5C#Cc5ccccc54)cc3)c2n1 (stereo not drawn) [Compound K24] | 3 | – |
| COCCOc1nc(N)c2[nH]c(=O)n(Cc3ccc(CNC(=O)CCc4cn(CCOCCOCCOCCNC(=O)CCN5C(=O)C=CC5=O)nn4)cc3)c2n1 [KJ-008] | 7 | – |
| C#CCn1c(=O)[nH]c2c(N)nc(OCCCC)nc21 [GY100, reference compound] | 110 | – |
| COCCOc1nc(N)c2[nH]c(=O)n(Cc3ccc(CNC(=O)CCC(=O)NC(CCCCc4cn(CCOCCOCCOCCNC(=O)CCN5C(=O)C=CC5=O)nn4)C(=O)N[C@H](C(=O)N[C@@H](CCCNC(N)=O)C(=O)Nc4ccc(COC(=O)NC[C@H](C)c5ccc(-c6c(O)cc(C)c7[nH]c(=O)c8sccc8c67)cc5)cc4)C(C)C)cc3)c2n1 (stereo partly drawn) [Compound K3] | 200 | – |
| CCC[C@H](C)Oc1nc(N)c2c(n1)n(CC1CC[N+]([O-])(CCO)CC1)c(=O)n2C(=O)NCCNC(=O)OCc1ccc(NC(=O)[C@H](CCCNC(N)=O)NC(=O)[C@@H](NC(=O)CCOCCOCCOCCOCCNC(=O)CCC(=O)N2Cc3ccccc3C#Cc3ccccc32)C(C)C)cc1 (stereo partly drawn) [Compound K63] | – | EC50 [2]: 80 nM |
| CCC[C@H](C)Oc1nc(N)c2[nH]c(=O)n(CC3CCN(C(=O)/C=C/C(=O)c4ccc(OC)cc4)CC3)c2n1 [KJ-102] | 3 | – |
| CC[C@H](C)[C@@H]([C@@H](CC(=O)N1CCCC1[C@H](OC)[C@@H](C)C(=O)N[C@H](C)[C@@H](O)c1ccccc1)OC)N(C)C(=O)[C@@H](NC(=O)[C@H](C(C)C)N(C)C(=O)OCc1ccc(NC(=O)[C@H](CCCNC(N)=O)NC(=O)[C@@H](NC(=O)C(CCCCc2cn(CCOCCOCCOCCC(=O)O)nn2)NC(=O)CCC(=O)NCc2ccc(Cn3c(=O)[nH]c4c(N)nc(OCCOC)nc43)cc2)C(C)C)cc1)C(C)C (stereo partly drawn) [Compound K5] | 130 | – |
| CCC[C@H](C)Oc1nc(N)c2c(n1)n(CC1CCN(C(=O)/C=C/C(=O)c3ccc(OC)cc3)CC1)c(=O)n2C(=O)NCCNC(=O)OCc1ccc(NC(=O)[C@H](CCCNC(N)=O)NC(=O)[C@@H](NC(=O)CCOCCOCCOCCOCCNC(=O)CCC(=O)N2Cc3ccccc3C#Cc3ccccc32)C(C)C)cc1 [Compound K57] | – | EC50 (24 h, 37 °C, Note a: sample pretreated with human liver microsomal enzyme, 2 h, read-out: EC50 IFN-γ ratio (inducing human PBMCs to produce IFN-γ)): 3 nM |
| CCCCOc1nc(N)c2[nH]c(=O)n(Cc3cn(CCOCCOCCOCCn4cc(CCCCN(C[C@H](C)c5ccc(-c6c(O)cc(C)c7[nH]c(=O)c8sccc8c67)cc5)C(=O)OCc5ccc(NC(=O)[C@H](CCCNC(N)=O)NC(=O)[C@@H](NC(=O)CCCCCN6C(=O)C=CC6=O)C(C)C)cc5)nn4)nn3)c2n1 [Compound K19] | 80 | – |
| CCCCOc1nc(N)c2[nH]c(=O)n(CC3CCN(C(=O)/C=C/C(=O)c4ccc(OC)cc4)CC3)c2n1 [KJ-104] | 9 | – |
| CCCCOc1nc(N)c2[nH]c(=O)n(Cc3cn(CCOCCOCCOCCN(C[C@H](C)c4ccc(-c5c(O)cc(C)c6[nH]c(=O)c7sccc7c56)cc4)C(=O)OCc4ccc(NC(=O)[C@H](CCCNC(N)=O)NC(=O)[C@@H](NC(=O)CCCCCN5C(=O)C=CC5=O)C(C)C)cc4)nn3)c2n1 [Compound K18] | 90 | – |
| C=C(CN1CCN(C(=O)n2c(=O)n(CCCc3cn(CCOCCOCCOCC(=O)OCC)nn3)c3nc(OCCCC)nc(N)c32)CC1)C(=O)NCCOCCOCCOCCOCCNC(=O)CCC(=O)N1Cc2ccccc2C#Cc2ccccc21 [Compound K61] | – | EC50 [3]: 2 nM |
| CCOC(=O)NC(=S)n1c(=O)n(Cc2ccc(CNC(=O)CCc3cn(CCOCCOCCOCCNC(=O)CCN4C(=O)C=CC4=O)nn3)cc2)c2nc(OCCOC)nc(N)c21 [Compound K15] | – | EC50 [2]: 12 nM |
| CCCCOc1nc(N)c2[nH]c(=O)n(Cc3ccc(NC(=S)Nc4sc5c(c4C(=O)OCC)CCCC5)cc3)c2n1 [KJ005] | 370 | – |
| C=C(COC(=O)n1c(=O)n(CCCc2cn(CCOCCOCCOCCOCCN=[N+]=[N-])nn2)c2nc(OCCCC)nc(N)c21)C(=O)OCC [Compound K44] | – | EC50 [3]: 2 nM |
| C#CCCC(=O)NCc1ccc(Cn2c(=O)[nH]c3c(N)nc(OCCOC)nc32)cc1 [SZU-136, reference compound] | 370 | – |
| COCCOc1nc(N)c2[nH]c(=O)n(Cc3ccc(CNC(=O)CCC(=O)NC(CCCCc4cnnn4CCOCCOCCOCCN=C=S)C(=O)NCCCC(=O)Nc4ccc(C#CC#N)cc4)cc3)c2n1 (stereo not drawn) [Compound K40] | 1 | – |
| C=CC(=O)Nc1cc(Nc2nccc(-c3cn(C)c4ccccc34)n2)c(OC)cc1N(C)CCN(C)CCOCCOCCOCCn1cc(Cn2c(=O)n(C(=O)NCCNC(=O)OCc3ccc(NC(=O)[C@H](CCCNC(N)=O)NC(=O)[C@@H](NC(=O)CCOCCOCCOCCOCCNC(=O)CCC(=O)N4Cc5ccccc5C#Cc5ccccc54)C(C)C)cc3)c3c(N)nc(OCCCC)nc32)nn1 [Compound K38] | – | EC50 [4]: 90 nM |
| C=CC(=O)Nc1cc(Nc2nccc(-c3cn(C)c4ccccc34)n2)c(OC)cc1N(C)CCN(C)CCCCCCNC(=O)C(CCCCc1cn(CCOCCOCCOCCNC(=O)CCC(=O)N2Cc3ccccc3C#Cc3ccccc32)nn1)NC(=O)CCC(=O)NCc1ccc(Cn2c(=O)[nH]c3c(N)nc(OCCOC)nc32)cc1 (stereo not drawn) [Compound K35] | 260 | – |
| COCCOc1nc(N)c2[nH]c(=O)n(Cc3ccc(CNC(=O)CCC(=O)N[C@@H](CCCCNC(=O)OCc4ccc(NC(=O)[C@H](CCCNC(N)=O)NC(=O)[C@@H](NC(=O)CCCCCN5C(=O)C=CC5=O)C(C)C)cc4)C(=O)NCCOCCOCCOCCOCCNC(=O)CCC(=O)N4Cc5ccccc5C#Cc5ccccc54)cc3)c2n1 [Compound K2] | 50 | – |
| C=C(CC(=O)OC)C(=O)NCc1ccc(Cn2c(=O)n(C(=O)NCCNC(=O)OCc3ccc(NC(=O)[C@H](CCCNC(N)=O)NC(=O)[C@@H](NC(=O)CCOCCOCCOCCOCCNC(=O)CCC(=O)N4Cc5ccccc5C#Cc5ccccc54)C(C)C)cc3)c3c(N)nc(OCCOC)nc32)cc1 [Compound K39] | – | EC50 [4]: 1 nM |
| CC[C@@]1(O)C(=O)OCc2c1cc1n(c2=O)Cc2c-1nc1cc(F)c(C)c3c1c2[C@@H](NC(=O)CO[Si](OCCOCCOCCNC(=O)C(CCCCc1cn(CCOCCOCCOCCNC(=O)CCN2C(=O)C=CC2=O)nn1)NC(=O)CCC(=O)NCc1ccc(Cn2c(=O)[nH]c4c(N)nc(OCCOC)nc42)cc1)(C(C)C)C(C)C)CC3 (stereo partly drawn) [Compound K17] | – | EC50 (Homo sapiens, PBMC; 24 h, 37 °C; no pretreatment marked; read-out: EC50 IFN-γ ratio (inducing human PBMCs to produce IFN-γ)): 210 nM |
| C=C(CN(CCCCc1cn(CCOCCOCCOCCn2cc(Cn3c(=O)[nH]c4c(N)nc(OCCCC)nc43)nn2)nn1)C[C@H](C)c1ccc(-c2c(O)cc(C)c3[nH]c(=O)c4sccc4c23)cc1)C(=O)NCCCCCCNC(=O)[C@@H](CCCCn1cc(COCCOCCOCCN=C=S)nn1)NC(=O)CCC(=O)NCc1ccc(Cn2c(=O)[nH]c3c(N)nc(OCCOC)nc32)cc1 [Compound K64] | 10 | – |
| CC[C@H](C)[C@@H]([C@@H](CC(=O)N1CCCC1[C@H](OC)[C@@H](C)C(=O)N[C@H](C)[C@@H](O)c1ccccc1)OC)N(C)C(=O)[C@@H](NC(=O)[C@H](C(C)C)N(C)C(=O)OCc1ccc(NC(=O)[C@H](CCCNC(N)=O)NC(=O)[C@@H](NC(=O)C(CCCCc2cn(CCOCCOCCOCCNC(=O)CCN3C(=O)C=CC3=O)nn2)NC(=O)CCC(=O)NCc2ccc(Cn3c(=O)[nH]c4c(N)nc(OCCOC)nc43)cc2)C(C)C)cc1)C(C)C (stereo partly drawn) [Compound K1] | 100 | – |
| CCCCOc1nc(N)c2[nH]cc(Cc3ccc4c(c3)CNCC4)c2n1 [PMQ-1, reference compound] | 320 | – |
